# “Also recorded” adds a separate entry of the source.
# System: Human dermal fibroblasts
# Assay: Hyaluronic acid (HA) secretion by human dermal fibroblasts, Hyaluronan ELISA of culture media
# Assay type: cell-based
# Details: for Synergy of active with red and/or near infrared light in hyaluronic acid production: combination of active and light versus light alone; for Fold Change versus treatment with light alone: net HA
# Description: Human dermal fibroblasts are maintained in flask in growth medium consisting of Dulbeccos' Modified Eagle Medium (DMEM) plus 10% fetal bovine serum, 50 units/ml penicillin and 50 μg/ml streptomycin. Cells are seeded at 10,000 cells per well in a 96 well plate in phenol-red-free Dulbeccos' Modified Eagle Medium (DMEM) plus 2% fetal bovine serum, 50 units/ml penicillin and 50 μg/ml streptomycin for 24 hours before the treatments. Glucosamine HCl or other actives were dissolved in 1×PBS at 10% stock and added into the medium at various concentrations for 48 hours. Culture media is collected at 48 hours post-treatment, and measured for HA (Hyaluronic acid) secretion using Hyaluronan ELISA kit (Echelon, cat. #K-1200) following the manufacturer protocol. To assess activity, the colorimetric chance is measured at 405 nm. The net HA secretion of each tested treatment is calculated by the amount of the HA secretion from each respective individual treatment minus the amount of the HA secretion from the untreated treatment. Then, the fold increase provided by the combination of the treatments by light+active is calculated as the fold change in net HA secreted from the application of the combined light plus active treatment divided by the net HA secreted from the treatment by light alone. […]
# [1] = 0.02% active alone in cell media, no light, 48 hours
# [2] = Red (633 nm) + NIR (830 nm) light 0.3 J/cm^2 each + 0.02% active
# [3] = Red + NIR light 0.3 J/cm^2 each + 0.02% active
# [4] = Red + NIR light 0.3 J/cm^2 each + 0.2% active
# [5] = Red + NIR light 3 J/cm^2 each + 0.02% active
# [6] = Red + NIR light 3 J/cm^2 each + 0.2% active
SMILES,Synergy of active with red and/or near infrared light in hyaluronic acid production,HA concentrations [1],"Change in HA concentration over Untreated (0.02% active alone, no light)",HA concentrations [2],Change in HA concentration over Untreated [3],Fold Change versus treatment with light alone [3],also measured
N[C@H]1C(O)O[C@H](CO)[C@@H](O)[C@@H]1O (some centres unmarked) [glucosamine],not observed,,,,,,
"N[C@H]1C(O)O[C@H](CO)[C@@H](O)[C@@H]1O.O=P(O)(O)O (some centres unmarked) [Glucosamine phosphate, reference compound]",,689 ng/mL,-51 ng/mL,1037 ng/mL,297 ng/mL,0.36,"Synergy of active with red and/or near infrared light in hyaluronic acid production (listed as glucosamine phosphate, phosphate): not observed; Synergy of active with red and/or near infrared light in hyaluronic acid production (phosphate): No synergy was observed"
"CC(=O)N[C@H]1C(O)O[C@H](CO)[C@@H](O)[C@@H]1O (some centres unmarked) [N-acetyl Glucosamine, N-acetyl glucosamine, reference compound]",No synergy was observed; also recorded: not observed,735 ng/mL,-125 ng/mL,1878 ng/mL,1018 ng/mL,1.1,
"Cl.N[C@H]1C(O)O[C@H](CO)[C@@H](O)[C@@H]1O (some centres unmarked) [Glucosamine HCl, glucosamine hydrochloride]",,543 ng/mL,-8 ng/mL,2489 ng/mL,+1938 ng/ml,2.25,"HA concentrations (0.2% active alone in cell media, no light, 48 hours): 999 ng/mL; Change in HA concentration over Untreated (0.2% active alone, no light): +448 ng/ml; HA concentrations (Red (633 nm) + NIR (830 nm) light 0.3 J/cm^2 each + 0.2% active): 2260 ng/mL; HA concentrations (Red (633 nm) + NIR (830 nm) light 3 J/cm^2 each + 0.02% active): 4379 ng/mL; HA concentrations (Red (633 nm) + NIR (830 nm) light 3 J/cm^2 each + 0.2% active): 3873 ng/mL; Change in HA concentration over Untreated [4]: +1709 ng/ml; Change in HA concentration over Untreated [5]: +3828 ng/ml; Change in HA concentration over Untreated [6]: +3322 ng/ml; Synergy of active with red and/or near infrared light in hyaluronic acid production (listed as glucosamine HCl, hydrochloride): synergistically increased the hyaluronic acid secretion; Synergy of active with red and/or near infrared light in hyaluronic acid production (listed as glucosamine hydrochloride, hydrochloride): synergistically increases hyaluronic acid production; Fold Change versus treatment with light alone [4]: 1.98; Fold Change versus treatment with light alone [5]: 2.99; Fold Change versus treatment with light alone [6]: 2.60"
